From paper PMC9049331, “X-ray crystal structure of the Escherichia coli RadD DNA repair protein bound to ADP reveals a novel zinc ribbon domain” (PLoS ONE, 2022)

Biological target: T1, RadD (Escherichia coli, UniProt P33919)
T1 construct: open reading frame of E. coli radD from plasmid pEAW724, no tag mentioned, expressed in E. coli STL2669 (DE3)
T1 sequence (P33919 1-586): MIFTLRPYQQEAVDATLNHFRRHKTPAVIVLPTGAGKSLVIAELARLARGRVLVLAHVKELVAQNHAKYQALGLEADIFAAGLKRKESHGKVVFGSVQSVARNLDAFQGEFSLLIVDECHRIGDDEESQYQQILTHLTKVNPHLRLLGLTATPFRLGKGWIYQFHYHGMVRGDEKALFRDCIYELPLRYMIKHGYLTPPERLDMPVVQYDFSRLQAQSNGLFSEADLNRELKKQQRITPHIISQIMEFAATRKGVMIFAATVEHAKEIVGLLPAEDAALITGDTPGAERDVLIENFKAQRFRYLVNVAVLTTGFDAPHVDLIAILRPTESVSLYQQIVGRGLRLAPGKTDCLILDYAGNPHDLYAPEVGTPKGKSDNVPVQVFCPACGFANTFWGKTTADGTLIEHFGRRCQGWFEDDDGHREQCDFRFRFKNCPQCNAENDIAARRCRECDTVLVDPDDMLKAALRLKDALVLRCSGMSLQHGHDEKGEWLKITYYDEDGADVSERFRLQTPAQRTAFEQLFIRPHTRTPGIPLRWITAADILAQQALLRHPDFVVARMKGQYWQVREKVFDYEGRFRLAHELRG
Test: X-ray crystal structure, […] A
Assay type: binding
Conditions: crystallised with 1 mM ATPgammaS, ADP presumed from slow hydrolysis; Mg2+; pH 7.7; 4 C; ATPase site

X-ray crystal structure, 2.03 A: ADP was modelled in the RadD active site
Compound: Nc1ncnc2c1ncn2[C@@H]1O[C@H](COP(=O)(O)OP(=O)(O)O)[C@@H](O)[C@H]1O [ADP]
